Measured values published in patent publication US12162918B2, “Periostin compounds for the treatment of haematological complications” (Chemotherapeutisches Forschungsinstitut Georg-Speyer-Haus, priority 2018, dated 2024).

How the values were obtained:
patients = assay: Peripheral blood counts of patients on VKA versus control patients; type: in vivo, human
Text: For FIGS. 6C-6H: Data of patients on VKA were obtained from the French health care databases. Patients with hematological disease, inflammation or sepsis were excluded. Patients admitted to the hospital for dermatological problems without hematological disease or sepsis acted as controls.

Lin− bone marrow cells = assay: Culture of Lin− bone marrow cells in conditioned medium from stroma cells; type: cell-based, mice; conditions: conditioned medium from warfarin-treated stroma cells
Protocol: Conditioned medium was harvested from stroma from 5 mice grown in the above medium containing vehicle or warfarin for 7 days. Consequently, 100,000 Lin− cells were grown for 2-3 days in the conditioned medium and analyzed for cell counts by flow cytometry. Where indicated, the conditioned medium was concentrated using Microsep Advance Centrifugal Devices 30K Omega (Pall Life Sciences, Portsmouth, UK).

HSC = assay: Competitive, serial and limiting dilution transplantation assays of whole bone marrow; type: in vivo, mice
Protocol: SJL (CD45.1) donor mice were treated with vehicle or warfarin, euthanized and long bones were flushed, followed by RBC lysis (Life Technologies, Darmstadt, Germany). For competitive transplantation 2×10^6 total BM cells from SJL mice were co-transplanted with 1×10^6 CD45.2+ BM competitor cells into lethally irradiated (900 cGy) C57BL/6N (CD45.2+) recipient mice. For serial transplantation 2×10^6 total CD45.1+ BM cells were transplanted into lethally irradiated C57BL/6N recipient mice. Cell engraftment and chimerism were assessed by flow cytometry of peripheral blood leukocytes for CD45.1 and CD45.2 after 4, 8, 12 and 16 weeks post transplantation. In the limiting dilution experiment we treated primary CD45.1+ donor mice with vehicle or warfarin for 14 days and, consequently, transplanted 5×10^5, 12.5×10^4, 6×10^4 and 1.5×10^4 pooled BM cells into 5 CD45.2+ recipients per group adding 5×10^5 CD45.2+ supporter cells. In indicated experiments we transplanted 5,000 or 10,000 sorted CD45.1+ LKS cells from mice treated with vehicle or warfarin plus 1×10^6 CD45.2+ total BM supporter cells into CD45.2+ recipient mice.
Differences in survival were assessed by Kaplan-Meier non-parametric estimates (Log-rank test) and between groups by student's t-test. The data were presented as mean±s.d. We used L-Calc software (Stemcell Technologies, Vancouver, Canada) to calculate HSC frequency by Poisson statistics. P values≤0.05 were accepted as significant.

wildtype mice = assay: Complete blood count and flow cytometry of peripheral blood and bone marrow of treated mice; type: in vivo; conditions: for absolute number of monocytes in peripheral blood / absolute number of leukocytes in peripheral blood: 14 days after initiation
Protocol: 0.5 mg/kg/d or 0.05 mg/kg/d of warfarin, resuspended in phosphate-buffered saline was administered to mice via subcutaneously implanted osmotic minipumps (ALZET minipumps, Cupertino, CA). The osmotic minipumps were changed after 14 days (if the experiment went beyond 14 days of treatment). Sham operated (skin incision and suture) mice served as controls. Warfarin treatment continued for 10-14 days. In the xenotransplantation experiments the mice were treated with warfarin via the drinking water (or normal drinking water) at a dose of 0.72 mg/100 ml for a total of 3 days a week (Pfeilschifter et al., 2011).
5-fluorouracil was intraperitoneally injected every week at a dose of 75 mg/kg for a total of 4 doses or as a one time dose of 200 mg/kg. Recombinant mouse periostin (R&D Systems, Minneapolis, MN, cat. no. 2955-F2), produced in the Sf21 (baculovirus)-derived insect cell line, was administered intravenously at a dose of 2-4 μg per day and vitamin K was given at a dose of 15 mg/kg by oral gavage for four consecutive days.
We assessed the complete blood count of vehicle or warfarin-treated mice using a complete blood count analyzer (Scil Vet ABC, Gurnee, IL). Peripheral blood and bone marrow samples were stained with antibodies for flow cytometry, which was performed on a BD LSR Fortessa (BD Biosciences, Heidelberg, Germany). The lineage antibody cocktail contained antibodies to B220, CD5, Ter119, F4/80 and CD11b. Engraftment of human cells in NSG mice was assessed using anti-human CD45 (BD Biosciences, San José, CA).

HSPC = assay: Methylcellulose colony assay of BM cells from treated mice; type: cell-based; conditions: from warfarin-treated vs control mice, P=0.02
Text: For the methylcellulose colony assays, we plated 10,000 total BM cells from vehicle- or warfarin-treated mice in methylcellulose (M3434, Stem Cell Technologies, Vancouver, Canada). We scored colonies after 10 days.

CC(=O)CC(c1ccccc1)c1c(O)c2ccccc2oc1=O (stereo not shown) [warfarin]
absolute number of leukocytes (patients; 282 patients on warfarin (P=0.0007) or 89 on fluindione (P=0.029) vs 145 control patients): significantly decreased | absolute number of monocytes (patients; 282 patients on warfarin (P=0.004) or 89 on fluindione (P=0.046) vs 145 control patients): significantly decreased | percentage of eosinophils (patients; 282 patients on warfarin vs 145 control patients, P=0.0027): significantly decreased | percentage of basophils (patients; 282 patients on warfarin vs 145 control patients, P=0.007): significantly decreased | platelets (patients; warfarin- or fluindione-treated patients): not reduced | Lin− cell fraction (Lin− bone marrow cells; P=0.0001): decrease | total number of hematopoietic cells (Lin− bone marrow cells; P=0.0009): decrease | myeloid cell fraction (Lin− bone marrow cells; P=0.001): decrease | function of whole bone marrow cells in serial transplantation (HSC; P=0.004 after tertiary transplantation): impaired function | function of whole bone marrow cells in competitive transplantation (HSC; P=0.04 after 16 weeks): impaired function | reduction of functional HSC in limiting dilution assay (HSC; warfarin-treated vs control mice, P=0.0006, L-Calc): 7.6 fold | absolute count and percentage of LKS, LKS SLAM and myeloid progenitor cells in the bone marrow (wildtype mice; 2 and 4 weeks, controls vs warfarin-treated mice): did not significantly differ | time at which the decrease in leukocytes and monocytes appeared (wildtype mice; after initiation of treatment): as early as three days | absolute number of monocytes in peripheral blood (wildtype mice; higher dose (0.5 mg/kg), P=0.007): reduced | absolute number of leukocytes in peripheral blood (wildtype mice; higher dose (0.5 mg/kg), P=0.008): reduced | absolute number of leukocytes in peripheral blood (wildtype mice; lower dose (0.05 mg/kg)): reduced | absolute number of monocytes in peripheral blood (wildtype mice; lower dose (0.05 mg/kg)): reduced | leukocyte and monocyte counts, oral versus subcutaneous administration (wildtype mice; oral versus subcutaneous): similarly reduced | lethal hemorrhagic complications (wildtype mice; subcutaneous versus oral treatment): fewer lethal hemorrhagic complications | lymphocyte count (wildtype mice; warfarin-treated mice): decreased, albeit to a lesser extent than myeloid cells | percentage of CD11b+ myeloid cells in peripheral blood (wildtype mice; warfarin-treated vs control mice, P=0.003): decreased | colony-forming ability of HSPC (HSPC): significantly impaired
